Results as given in patent US8916575B2, “Quinazoline derivatives for the treatment of viral infections and further diseases” (Janssen R&D Ireland, priority 2011, dated 2014).
pEC50: −log10 of the molar value.

How the values were obtained:
[1] = target: T1, human TLR8 (Homo sapiens, UniProt Q9NR97); assay: TLR8 wild type NFκB-luc cellular reporter assay; assay type: cell-based; set-up: unit not given here; settings: HEK293 NFκB-luc reporter, 6 hours incubation
T1 construct: expressed in transfected cells; host or cells: HEK293
T1 sequence (Q9NR97 27-1041): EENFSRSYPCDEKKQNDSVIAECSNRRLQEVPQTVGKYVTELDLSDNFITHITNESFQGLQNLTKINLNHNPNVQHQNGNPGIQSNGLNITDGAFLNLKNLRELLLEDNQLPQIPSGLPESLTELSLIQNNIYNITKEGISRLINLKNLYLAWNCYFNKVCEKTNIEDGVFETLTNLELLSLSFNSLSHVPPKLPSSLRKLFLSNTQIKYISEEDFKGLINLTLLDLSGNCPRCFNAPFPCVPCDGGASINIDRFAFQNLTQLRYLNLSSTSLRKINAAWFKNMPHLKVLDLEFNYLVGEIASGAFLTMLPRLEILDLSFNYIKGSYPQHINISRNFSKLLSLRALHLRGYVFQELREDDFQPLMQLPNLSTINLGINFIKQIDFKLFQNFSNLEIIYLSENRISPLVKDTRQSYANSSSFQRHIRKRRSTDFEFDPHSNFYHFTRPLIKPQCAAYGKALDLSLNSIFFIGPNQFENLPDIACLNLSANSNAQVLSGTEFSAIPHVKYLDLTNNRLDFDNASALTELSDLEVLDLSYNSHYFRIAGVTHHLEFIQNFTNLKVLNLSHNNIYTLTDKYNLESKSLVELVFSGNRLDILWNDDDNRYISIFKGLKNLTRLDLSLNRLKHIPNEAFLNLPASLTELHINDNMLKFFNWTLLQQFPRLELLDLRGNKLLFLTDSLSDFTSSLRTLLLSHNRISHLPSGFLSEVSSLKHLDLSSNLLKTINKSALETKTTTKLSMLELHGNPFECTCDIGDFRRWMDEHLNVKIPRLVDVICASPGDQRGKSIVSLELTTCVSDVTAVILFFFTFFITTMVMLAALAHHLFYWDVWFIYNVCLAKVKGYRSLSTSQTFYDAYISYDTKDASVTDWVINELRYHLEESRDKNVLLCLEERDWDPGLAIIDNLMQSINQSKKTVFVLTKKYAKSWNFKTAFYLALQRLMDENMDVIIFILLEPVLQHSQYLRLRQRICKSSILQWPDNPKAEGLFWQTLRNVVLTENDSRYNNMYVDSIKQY
Description: (§1) The ability of compounds to activate human TLR7 and/or TLR8 was assessed in a cellular reporter assay using HEK293 cells transiently transfected with a TLR7 or TLR8 expression vector and NFκB-luc reporter construct. In one instance the TLR expression construct expresses the respective wild type sequence or a mutant sequence comprising a deletion in the second leucine-rich repeat of the TLR.
(§2) Briefly, HEK293 cells were grown in culture medium (DMEM supplemented with 10% FCS and 2 mM Glutamine). For transfection of cells in 10 cm dishes, cells were detached with Trypsin-EDTA, transfected with a mix of CMV-TLR7 or TLR8 plasmid (750 ng), NFκB-luc plasmid (375 ng) and a transfection reagent and incubated 24 hours at 37° C. in a humidified 5% CO2 atmosphere. Transfected cells were then detached with Trypsin-EDTA, washed in PBS and resuspended in medium to a density of 1.67×10^5 cells/mL. Thirty microliters of cells were then dispensed into each well in 384-well plates, where 10 μL of compound in 4% DMSO was already present. Following 6 hours incubation at 37° C., 5% CO2, the luciferase activity was determined by adding 15 μl of Steady Lite Plus substrate (Perkin Elmer) to each well and readout performed on a ViewLux ultraHTS microplate imager (Perkin Elmer). Dose response curves were generated from measurements performed in quadruplicates. Lowest effective concentrations (LEC) values, defined as the concentration that induces an effect which is at least two fold above the standard deviation of the assay, were determined for each compound.

[2] = system: human TLR7 mutant (dIRR2); assay: TLR7 mutant (deletion in second leucine-rich repeat) NFκB-luc cellular reporter assay; assay type: cell-based; set-up: unit not given here; settings: HEK293 NFκB-luc reporter, mutant TLR7, 6 hours incubation
Description: as §1, §2

[3] = system: human TLR8 mutant (dIRR2); assay: TLR8 mutant (deletion in second leucine-rich repeat) NFκB-luc cellular reporter assay; assay type: cell-based; set-up: unit not given here; settings: HEK293 NFκB-luc reporter, mutant TLR8, 6 hours incubation
Description: as §1, §2

[4] = system: HCV replicon (Huh-7 luc/neo cells); assay: Suppression of HCV replicon replication by conditioned media from PBMC; assay type: cell-based, HCV type 1b; settings: Hepatitis C virus, compound concentration applied to PBMCs giving 50% reduction of replicon luciferase activity, read-out: PBMC-HUH7_EC50
Description: Activation of human TLR7 results in robust production of interferon by plasmacytoid dendritic cells present in human blood. The potential of compounds to induce interferon was evaluated by looking at the antiviral activity in the HCV replicon system upon incubation with conditioned media from peripheral blood mononuclear cells (PBMC). The HCV replicon assay is based on a bicistronic expression construct, as described by Lohmann et al. (Science (1999) 285: 110-113; Journal of Virology (2003) 77: 3007-15 3019) with modifications described by Krieger et al. (Journal of Virology (2001) 75: 4614-4624). The assay utilized the stably transfected cell line Huh-7 luc/neo harboring an RNA encoding a bicistronic expression construct comprising the wild type NS3-NS5B regions of HCV type 1b translated from an Internal Ribosome Entry Site (IRES) from encephalomyocarditis virus (EMCV), preceded by a reporter gene (Firefly-luciferase) and a selectable marker gene (neoR, neomycine phosphotransferase). The construct is flanked by 5′ and 3′ NTRs (non-translated regions) from HCV type 1b. Continued culture of the replicon cells in the presence of G418 (neoR) is dependent on the replication of the HCV RNA. The stably transfected replicon cells that replicate HCV RNA autonomously and to high levels, encoding inter alia luciferase, were used for profiling of the conditioned cell culture media.
Briefly, PBMCs were prepared from buffy coats of at least two donors using a standard Ficoll centrifugation protocol. Isolated PBMCs were resuspended in RPMI medium supplemented with 10% human AB serum and 2×10^5 cells/well were dispensed into 384-well plates containing compounds (70 μL total volume). After overnight incubation, 10 μL of supernatant was transferred to 384-well plates containing 2.2×10^3 replicon cells/well in 30 μL (plated the day before). Following 24 hours of incubation, replication was measured by assaying luciferase activity using 40 μL/well Steady Lite Plus substrate (Perkin Elmer) and measured with ViewLux ultraHTS microplate imager (Perkin Elmer). The inhibitory activity of each compound on the Huh7-luc/neo cells were reported as EC50 values, defined as the compound concentration applied to the PBMCs resulting in a 50% reduction of luciferase activity which in turn indicates the degree of replication of the replicon RNA on transfer of a defined amount of PBMC culture medium. Recombinant interferon α-2a (Roferon-A) was used as a standard control compound.

CCCCCNc1nc(N)nc2cc(OC)c(OC)cc12 [Compound 2]
TLR8-wt_LEC [1]: 1.5 | TLR7-dIRR2_LEC [2]: 1.2 | TLR8-dIRR2_LEC [3]: 0.6 | pEC50 [4]: 5.36
